From ChEMBL document CHEMBL1201862, “PubChem BioAssay data set” (2004)
Calls of active or inactive are those of the source.

How the values were obtained:
HEK293 = test: Fluorescence-based counterscreen for potentiators or agonists of NPY-Y2: cell-based high-throughput dose response assay to identify inhibitors of cyclic nucleotide gated ion channel (CNGC) activity. In this assay, the parental HEK293 cell line transfected with a cyclic-nucleotide gated ion channel (CNGC)-based cAMP sensor is used to measure inhibition of isoproterenol-induced CNGC activity by test compound.; assay type: functional; conditions: Homo sapiens;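 note: stimulus is 1 µM isoproterenol at EC100 plus PDE inhibitor Ro 20-1724 at 25 µM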
[1] = C. albicans growth with fluconazole, confirmation, fluorescence, retest (AID 2467); assay type: functional, cell-based
[2] = molecular target: T1, Calpain-2 catalytic subunit (Sus scrofa, UniProt P43367); test: pig calpain II inhibitor potency, dose response, biochemical, fluorogenic peptide substrate (AID 1420); assay type: functional
T1 sequence (P43367 whole entry): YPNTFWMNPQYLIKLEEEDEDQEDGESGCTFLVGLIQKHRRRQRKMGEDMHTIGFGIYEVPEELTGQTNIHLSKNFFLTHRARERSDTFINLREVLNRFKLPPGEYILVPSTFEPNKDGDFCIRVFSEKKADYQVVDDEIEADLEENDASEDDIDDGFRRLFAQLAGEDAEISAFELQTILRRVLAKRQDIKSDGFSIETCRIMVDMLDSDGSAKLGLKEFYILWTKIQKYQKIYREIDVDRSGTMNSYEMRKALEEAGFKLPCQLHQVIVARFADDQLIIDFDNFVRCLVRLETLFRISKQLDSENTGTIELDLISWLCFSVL

[3] = molecular target: T2, Neuropeptide Y receptor type 2 (Homo sapiens, UniProt P49146); test: Fluorescence-based cell-based high-throughput dose response assay for agonists of NPY-Y2. [Related pubchem assays: 1703 (Screening assay (CNGC inhibitors).), 1359 (Screening assay (NPY-Y2 potentiators or agonists).), 1304 (Screening assay (NPY-Y1 potentiators or agonists).), 1710 (Screening assay (NPY-Y2 agonists).), 1791 (Summary AID.)]; assay type: functional
T2 sequence (P49146 whole entry): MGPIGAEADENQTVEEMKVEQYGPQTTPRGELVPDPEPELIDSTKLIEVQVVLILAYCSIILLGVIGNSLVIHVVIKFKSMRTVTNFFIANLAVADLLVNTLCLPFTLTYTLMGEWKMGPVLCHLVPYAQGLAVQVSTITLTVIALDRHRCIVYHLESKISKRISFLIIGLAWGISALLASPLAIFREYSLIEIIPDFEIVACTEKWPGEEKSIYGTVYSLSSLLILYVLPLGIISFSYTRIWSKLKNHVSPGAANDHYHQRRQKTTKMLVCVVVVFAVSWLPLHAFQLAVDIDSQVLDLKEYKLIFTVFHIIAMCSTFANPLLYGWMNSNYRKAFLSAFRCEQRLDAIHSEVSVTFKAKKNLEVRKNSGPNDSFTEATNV

[4] = molecular target: T3, Neuropeptide Y receptor type 1 (Homo sapiens, UniProt P25929); test: Fluorescence-based counterscreen for agonists of NPY-Y2: cell-based high-throughput dose response assay for agonists of NPY-Y1.; assay type: functional
T3 sequence (P25929 whole entry): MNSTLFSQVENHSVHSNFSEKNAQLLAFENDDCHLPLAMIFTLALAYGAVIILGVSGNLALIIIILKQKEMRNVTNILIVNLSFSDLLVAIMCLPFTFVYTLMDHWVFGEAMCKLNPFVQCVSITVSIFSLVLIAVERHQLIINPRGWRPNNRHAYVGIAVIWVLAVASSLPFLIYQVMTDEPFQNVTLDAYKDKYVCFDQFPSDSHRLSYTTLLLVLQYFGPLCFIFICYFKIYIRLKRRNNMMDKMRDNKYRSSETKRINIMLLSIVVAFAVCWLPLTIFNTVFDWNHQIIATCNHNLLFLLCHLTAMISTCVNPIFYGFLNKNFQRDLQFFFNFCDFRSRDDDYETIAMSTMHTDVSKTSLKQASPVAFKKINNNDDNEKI

[5] = NIH-3T3 fibroblast cytotoxicity, dose response, cytotoxicity control, cell-based, fluorescence, Alamar Blue, secondary assay (AID 2327); assay type: functional;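 note: NIH-3T3 mouse fibroblasts cultured with fluconazole at 8 µg/mL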
[6] = molecular target: T4, Heat shock factor protein 1 (Mus musculus, UniProt P38532); test: HSF1 potentiators in luciferase reporter cells, confirmation, cell-based, NIH3T3, luminescence, dose retest (AID 435004); assay type: functional;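 note: stress induced by proteasome inhibitor MG132 added 30 min after compound; luciferase reporter driven by HSF1 response element in NIH3T3 cells; actives raise luminescence as potentiators of the MG132 stress response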
T4 sequence (P38532 whole entry): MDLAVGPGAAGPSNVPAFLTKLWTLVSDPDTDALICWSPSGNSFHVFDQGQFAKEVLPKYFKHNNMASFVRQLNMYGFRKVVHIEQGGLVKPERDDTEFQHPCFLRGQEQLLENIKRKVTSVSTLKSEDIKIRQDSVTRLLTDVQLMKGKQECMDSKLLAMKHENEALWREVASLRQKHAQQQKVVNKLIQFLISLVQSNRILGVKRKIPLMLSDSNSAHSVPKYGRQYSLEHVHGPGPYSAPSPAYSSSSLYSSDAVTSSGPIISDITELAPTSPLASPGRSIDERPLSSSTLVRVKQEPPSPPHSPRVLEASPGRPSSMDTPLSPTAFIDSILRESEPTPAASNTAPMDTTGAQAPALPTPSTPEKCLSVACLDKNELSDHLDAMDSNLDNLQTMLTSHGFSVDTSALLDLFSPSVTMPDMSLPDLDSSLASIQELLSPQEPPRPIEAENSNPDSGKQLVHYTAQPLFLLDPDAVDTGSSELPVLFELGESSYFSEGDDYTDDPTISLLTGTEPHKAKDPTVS

[7] = molecular target: Ras and Rab interactor 1/Tyrosine-protein kinase ABL1 (Homo sapiens, UniProt P00519+Q13671); assay type: functional;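 note: biochemical TR-FRET dose-response test measuring inhibition of binding between Rin1 and Abl proteins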
[8] = molecular target: Peroxisome proliferator-activated receptor gamma/Nuclear receptor corepressor 2 (Homo sapiens, UniProt P37231+Q9Y618); assay type: functional
[9] = molecular target: Photoreceptor-specific nuclear receptor (Homo sapiens, UniProt Q9Y5X4); assay type: functional;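 note: potency for compounds that break the NR2E3 corepressor complex and count as activators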
[10] = system: Streptococcus sp. 'group A'; test: growth inhibition of control SK(-) GAS strain, dose response, counter-screen for streptokinase expression inhibitor project, luminescence, kanamycin, BacTiterGlo, confirmation (AID 1900); assay type: functional, organism-based
Streptokinase A = molecular target: T5, Streptokinase A (Streptococcus pyogenes serotype M1, UniProt P10520); test: S. pyogenes streptokinase expression inhibitors, potency, dose response, plasminogen activation absorbance, OD405 (AID 1914); assay type: functional, Streptococcus pyogenes M1 GAS;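 note: secreted streptokinase activity via plasminogen activation per viability signal from cell pellet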
T5 sequence (P10520 whole entry): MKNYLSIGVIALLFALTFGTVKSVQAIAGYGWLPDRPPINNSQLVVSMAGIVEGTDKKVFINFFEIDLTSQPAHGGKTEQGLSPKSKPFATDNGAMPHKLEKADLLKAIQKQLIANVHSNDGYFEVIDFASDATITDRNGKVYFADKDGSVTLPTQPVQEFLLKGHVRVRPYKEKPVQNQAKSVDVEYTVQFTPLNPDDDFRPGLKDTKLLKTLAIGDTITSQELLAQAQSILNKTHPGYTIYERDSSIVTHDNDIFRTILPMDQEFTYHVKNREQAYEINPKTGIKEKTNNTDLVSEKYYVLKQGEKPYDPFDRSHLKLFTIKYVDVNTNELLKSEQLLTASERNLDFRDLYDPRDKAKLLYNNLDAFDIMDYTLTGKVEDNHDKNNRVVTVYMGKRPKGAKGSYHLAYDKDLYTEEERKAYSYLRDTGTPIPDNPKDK

Streptococcus = test: Group A Streptococcus viability loss, dose response, counter-screen for streptokinase expression inhibitor project, luminescence, BacTiterGlo (AID 1915); assay type: functional, organism-based;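 note: potency for reduction of bacterial viability or growth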
[11] = molecular target: T6, Ubiquitin-conjugating enzyme E2 N (Homo sapiens, UniProt P61088); assay type: functional;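 note: Dose-response confirmation in a TR-FRET assay detecting UBC13-driven polyubiquitin chain formation, inhibition measured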
T6 sequence (P61088 whole entry): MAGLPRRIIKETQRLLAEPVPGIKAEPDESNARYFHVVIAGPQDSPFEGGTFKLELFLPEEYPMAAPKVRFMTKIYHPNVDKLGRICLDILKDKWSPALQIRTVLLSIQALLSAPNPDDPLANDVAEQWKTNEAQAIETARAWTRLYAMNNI

[12] = molecular target: T7, Alkaline phosphatase, tissue-nonspecific isozyme (Homo sapiens, UniProt P05186)
T7 sequence (P05186 whole entry): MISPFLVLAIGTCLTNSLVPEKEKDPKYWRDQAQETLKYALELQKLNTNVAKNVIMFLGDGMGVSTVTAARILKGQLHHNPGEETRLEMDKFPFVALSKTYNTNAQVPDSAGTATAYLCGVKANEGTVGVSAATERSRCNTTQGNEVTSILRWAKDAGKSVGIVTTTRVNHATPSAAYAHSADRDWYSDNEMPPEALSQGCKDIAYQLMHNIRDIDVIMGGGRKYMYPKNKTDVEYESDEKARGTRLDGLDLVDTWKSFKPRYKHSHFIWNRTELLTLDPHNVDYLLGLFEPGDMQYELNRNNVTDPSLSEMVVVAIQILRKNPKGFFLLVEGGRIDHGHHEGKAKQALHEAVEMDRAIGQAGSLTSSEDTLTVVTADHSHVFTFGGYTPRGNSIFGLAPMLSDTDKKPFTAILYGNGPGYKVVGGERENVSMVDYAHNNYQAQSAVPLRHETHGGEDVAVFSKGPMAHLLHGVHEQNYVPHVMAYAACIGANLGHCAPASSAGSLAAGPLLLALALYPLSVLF

[13] = molecular target: Acyl-homoserine lactone acylase PvdQ (Pseudomonas aeruginosa (strain LESB58), UniProt Q9I194); test: P. aeruginosa PvdQ acylase inhibitors, dose response, biochemical, fluorescence, plate reader and imaging, cherry-picks (AID 493231)
Major prion protein = Major prion protein (Homo sapiens, UniProt P04156); assay type: functional, cell-based
[14] = molecular target: Peroxisome proliferator-activated receptor gamma/Nuclear receptor coactivator 2 (Homo sapiens, UniProt P37231); test: (§1) TR-FRET dose response biochemical High Throughput Screening assay for agonists of the steroid receptor coactivator 2 (SRC-2) recruitment by the peroxisome proliferator-activated receptor gamma (PPAR gamma): non-selective agonists. [Related pubchem assays: 1297, 1032 ]; assay type: functional
[15] = molecular target: Peroxisome proliferator-activated receptor gamma/Nuclear receptor coactivator 1 (Homo sapiens, UniProt P37231); test: as §1, with “1 (SRC-1)” for “2 (SRC-2)”, “assays (depositor defined):AID1300, AID1808, AID504735, AID631]” for “assays: 1297, 1032 ]”; assay type: protein assay
Genome polyprotein = Genome polyprotein (Hepatitis C virus, UniProt Q2Q167); test: HCV core protein dimerization inhibitors, dose response, biochemical, TR-FRET (AID 2159); set-up: species or system Hepacivirus hominis;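 note: blocks dimerization of HCV core protein measured by TR-FRET between tagged core106 pairs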
[16] = molecular target: Peroxisome proliferator-activated receptor gamma/Nuclear receptor coactivator 3 (Homo sapiens, UniProt P37231); test: as §1, with “3 (SRC-3)” for “2 (SRC-2)”, “1301 (Confirmation screen.), 1048 (Primary screen.)]” for “1297, 1032 ]”; assay type: functional
Aspartyl aminopeptidase = Aspartyl aminopeptidase (Plasmodium falciparum 3D7, UniProt Q8I2J3)
Procathepsin L = Procathepsin L (Homo sapiens, UniProt P07711)
[17] = M. tuberculosis H37Rv growth inhibitors, H37Rv strain (AID 1626); assay type: functional
Cytochrome P450 2D6 = Cytochrome P450 2D6 (Homo sapiens, UniProt P10635);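 note: CYP2D6 member of a cytochrome P450 panel assay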

In the case of O=C(COc1ccc(Cl)cc1)Nc1ncc([N+](=O)[O-])s1, the EC50 (HEK293) is reported as > 35.4 µM (not active), the EC50 [1] is reported as 0.166 µM (active) and the IC50 [2] is reported as 24.9 µM (not active). For the same molecule, the EC50 [3] was > 35.4 µM (not active), the EC50 [4] was 33.8 µM (not active) and the EC50 [5] was 36 µM (active). The EC50 [6] was 0.382 µM (active).

In the case of Cc1cccc(C)c1NC(=O)CCCCCC1NC(=O)NC1C (configuration not stated), the IC50 [7] is reported as 0.106 µM (active), the IC50 [8] is reported as > 39.8 µM (not active) and the IC50 [9] is reported as 3.85 µM (active).

For COc1ccc(Cl)cc1NC(=O)CN1CCC(n2nnc3cc(C)ccc32)CC1, the EC50 [10] was 12.2 µM (active), the EC50 (Streptokinase A) was 26.4 µM (active) and the EC50 (Streptococcus) was 93.4 µM (active). The IC50 [11] was > 20 µM (inactive) and the EC50 [12] was 70.6 µM (not active).

For Cc1cccc(C(C#N)c2ccc(Cl)nn2)c1 (configuration not stated), the EC50 [6] was > 260 µM (inactive) and the AC50 [13] was 2.01 µM (active).

For Cc1cc(Br)c2nc3c(c(C(=O)O)c2c1)CCCCC3, the IC50 (Major prion protein) was 0.141 µM (active), the EC50 [14] was 12.8 µM (not active) and the EC50 [15] was > 79.4 µM (inactive). For the same molecule, the IC50 (cells) was > 138 µM (inactive), the IC50 (Genome polyprotein) was > 49.8 µM (not active) and the IC50 [8] was 0.604 µM (active). The EC50 [16] was > 79.4 µM (not active) and the IC50 [9] was 1.38 µM (active).

For Nc1nncn1C(=O)CCCOc1ccc(Cl)cc1Cl, the IC50 (Aspartyl aminopeptidase) was 2.6 µM (active) and the IC50 (Procathepsin L) was > 59.6 µM (not active).

In the case of CCN(CC)S(=O)(=O)c1ccc(C(=O)Nn2cnnc2)cc1, the IC50 (Aspartyl aminopeptidase) is reported as 1.07 µM (active) and the IC50 (Procathepsin L) is reported as > 59.6 µM (not active).

With CC(=O)OCCCN1c2ccccc2Nc2nnc(-c3ccccc3)cc21 the IC50 [17] was > 100 µM (active), the AC50 (Cytochrome P450 2D6) was 15.8 µM (inconclusive) and the EC50 [12] was 71.8 µM (not active).
